PMC10831786 (Virus Research, 2024)
“And” between values parts separate entries of the source, which are not always exact repeats. Equal entries are not always repeated. Structures can show the parent of a compound that is named as a salt. Where two headings read alike, the source gives them in different places.

What was measured:
[1] = target: T1, l-type calcium current ICaL (Cavia porcellus, UniProt O35505); experiment: Patch clamp recording of ICaL in guinea pig ventricular myocytes; type: cell-based; settings: for IC50: GP cardiomyocytes, read-out: IC50, calcium channel (ICaL) blocking activity; for Kd: guinea pig ventricular myocytes, Langmuir isotherm, 5-60 μM, read-out: KD for inhibition of ICaL
T1 construct: from tissue; host or cells: freshly dissociated guinea pig ventricular myocytes
T1 sequence (O35505 whole entry): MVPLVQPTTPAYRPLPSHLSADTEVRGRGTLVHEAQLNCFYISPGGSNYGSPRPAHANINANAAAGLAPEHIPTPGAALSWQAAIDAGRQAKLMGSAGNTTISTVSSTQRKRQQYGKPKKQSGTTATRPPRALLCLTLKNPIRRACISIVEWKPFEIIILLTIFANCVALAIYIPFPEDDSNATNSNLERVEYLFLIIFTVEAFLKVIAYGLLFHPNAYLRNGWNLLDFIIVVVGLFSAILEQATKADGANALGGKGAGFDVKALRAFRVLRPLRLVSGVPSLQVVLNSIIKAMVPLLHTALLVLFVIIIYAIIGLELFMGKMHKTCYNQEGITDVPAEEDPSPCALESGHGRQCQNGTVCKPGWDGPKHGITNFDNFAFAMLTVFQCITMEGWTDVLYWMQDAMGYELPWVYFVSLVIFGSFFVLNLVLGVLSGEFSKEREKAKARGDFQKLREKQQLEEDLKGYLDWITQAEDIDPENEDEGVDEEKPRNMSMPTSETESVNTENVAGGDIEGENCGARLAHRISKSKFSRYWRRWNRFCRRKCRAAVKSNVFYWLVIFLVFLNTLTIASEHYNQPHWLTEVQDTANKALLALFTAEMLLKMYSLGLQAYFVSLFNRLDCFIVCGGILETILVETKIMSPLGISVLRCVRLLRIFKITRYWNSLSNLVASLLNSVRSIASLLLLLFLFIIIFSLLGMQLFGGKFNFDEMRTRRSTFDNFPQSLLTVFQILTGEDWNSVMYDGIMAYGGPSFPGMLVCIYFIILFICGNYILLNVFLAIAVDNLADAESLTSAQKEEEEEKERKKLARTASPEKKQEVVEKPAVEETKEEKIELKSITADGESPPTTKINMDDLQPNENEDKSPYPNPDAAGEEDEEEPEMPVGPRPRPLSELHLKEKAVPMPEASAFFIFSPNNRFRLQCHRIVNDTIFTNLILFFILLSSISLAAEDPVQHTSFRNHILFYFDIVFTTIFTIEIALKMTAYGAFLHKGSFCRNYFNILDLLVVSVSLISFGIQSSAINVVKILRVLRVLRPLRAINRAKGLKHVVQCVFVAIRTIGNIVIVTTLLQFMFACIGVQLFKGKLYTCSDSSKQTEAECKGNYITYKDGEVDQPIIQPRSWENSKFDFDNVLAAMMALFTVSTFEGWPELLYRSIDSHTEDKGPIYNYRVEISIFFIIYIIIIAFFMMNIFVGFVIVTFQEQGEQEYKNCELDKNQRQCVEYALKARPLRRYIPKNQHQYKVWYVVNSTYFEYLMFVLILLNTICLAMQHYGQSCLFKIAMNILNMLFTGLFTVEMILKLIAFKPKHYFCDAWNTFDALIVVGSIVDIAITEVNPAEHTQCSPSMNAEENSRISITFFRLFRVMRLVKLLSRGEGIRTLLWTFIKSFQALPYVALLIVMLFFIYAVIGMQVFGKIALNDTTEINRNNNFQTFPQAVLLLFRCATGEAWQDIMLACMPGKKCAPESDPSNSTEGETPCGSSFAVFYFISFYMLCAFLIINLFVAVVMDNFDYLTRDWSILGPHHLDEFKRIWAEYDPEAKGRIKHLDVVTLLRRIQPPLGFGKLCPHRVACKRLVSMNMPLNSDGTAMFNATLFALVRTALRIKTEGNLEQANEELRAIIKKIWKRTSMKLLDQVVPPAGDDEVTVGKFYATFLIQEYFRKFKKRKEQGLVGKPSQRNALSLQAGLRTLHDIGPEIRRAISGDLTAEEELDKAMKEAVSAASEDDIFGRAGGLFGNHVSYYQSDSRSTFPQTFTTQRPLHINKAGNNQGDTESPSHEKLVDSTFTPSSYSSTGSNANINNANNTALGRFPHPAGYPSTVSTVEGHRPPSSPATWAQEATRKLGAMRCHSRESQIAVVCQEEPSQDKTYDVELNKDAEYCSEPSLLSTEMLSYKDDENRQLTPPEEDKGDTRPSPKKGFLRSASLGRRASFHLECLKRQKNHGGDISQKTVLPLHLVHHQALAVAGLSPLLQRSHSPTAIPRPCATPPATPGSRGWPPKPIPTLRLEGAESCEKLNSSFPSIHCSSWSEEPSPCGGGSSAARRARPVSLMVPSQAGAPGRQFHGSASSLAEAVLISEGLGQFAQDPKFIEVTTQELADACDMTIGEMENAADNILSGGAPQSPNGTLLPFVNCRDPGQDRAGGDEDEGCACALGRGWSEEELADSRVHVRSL

[2] = tested on: protein synthesis in Vero E6 cells; experiment: Puromycin pulse labeling, protein synthesis in cultured Vero E6 cells; type: cell-based, African green monkey; settings: for IC50: Chlorocebus sabaeus
Procedure: Vero E6 cells were seeded at 30,000 cells per cm^2 in 6-well plates. […] Control experiments were conducted in medium alone and medium containing cycloheximide or DMSO. After 12 min, cells were washed with 37° PBS and then allowed to recover in drug-free 2 % FBS-EMEM for 30 min. Cell pellets, collected by trypsinization and centrifugation for 5 min at 5 000 rpm at 4 °C, were re-suspended in ice-cold PBS and centrifugation was repeated. Collected cells were stored at −80 °C.
Antibodies used were anti-puromycin monoclonal (TFS; MABE34), goat anti-mouse-HRP (TFS, Invitrogen; G21040), rabbit anti-β-actin (Cell Signaling, 4967S, lot 9) and HRP-conjugated goat-anti-rabbit (Cell Signaling, 7074S, lot 27). Protein extract and immunoblotting methods were done by standard methods reported here as Supplementary Information.
Vero E6 cells were seeded at 30,000 cells per cm^2 in 6-well plates. […] Puromycin labelling protocols have been well established by other laboratories and a general review of the methods has been published^79. Control experiments were conducted in medium alone and medium containing cycloheximide or DMSO. Following incubation with puromycin for 12 min, the medium was quickly removed and cells were washed with warm PBS and then allowed to recover in drug-free 2% FBS-EMEM for 30 min. Cell pellets, collected by trypsinization and centrifugation for 5 min at 5 000 rpm at 4°C, were re-suspended in ice-cold PBS and the centrifugation was repeated. Collected cells were stored at -80°C until subjected to the protein preparation as noted below.
Defrosted cell pellets were re-suspended in 120 µl of RIPA (radio-immunoprecipitation) buffer (Sigma; R0278) containing 7 µl of protease inhibitors (Sigma; P8340). Samples were incubated on ice for 40 min with occasional gentle mixing. Cell debris was removed by a 20 min centrifugation at 16,000 g at 4°C and supernatants were stored at -80°C. Protein was measured by the Pierce^TM bicinchoninic acid (BCA) assay (Thermo Fisher Scientific [TFS], MA, USA; 23250), using bovine serum albumin as a standard, according to protocols recommended by the manufacturer.
For immunoblotting, 10 µg of protein was combined with Laemmli buffer containing 10% β-mercaptoethanol, heated at 95°C for 5 min and loaded on 4-20% Mini-PROTEAN® TGX™ precast protein gels. Samples were resolved by electrophoresis in Tris-Gly-SDS buffer and transferred to nitrocellulose membranes. Transfer was conducted in Tris-Gly buffer containing 20% methanol at 4-6 V/cm^2 for one hour. Membranes were blocked in 10 mM sodium phosphate buffer containing 150 mM NaCl (pH 7.8), 5% milk and 0.1% TWEEN20 (PBST) at room temperature for at least one hour, and then incubated overnight with primary anti-puromycin antibodies (TFS; MABE343 mouse monoclonal antibodies clone 12D10; 1:12,500) at 4°C. Membranes were washed for five minutes three times in PBST and incubated with secondary goat anti-mouse horseradish peroxidase (HRP) -conjugated antibodies (TFS, Invitrogen; G21040; 1:25,000) for 90 min. After three more rounds of washing as above, membranes were incubated with an HRP substrate (TFS; 34077) for one minute and chemoluminescence was visualized by exposing membranes to film for 1, 2, 5, 10 and 30 min.
For β-actin staining, the same membranes used for puromycin immunostaining were washed four times, 5 min each, in 20 mM Tris-buffered saline containing 500 mM sodium chloride (pH 7.5) and 0.1% TWEEN20 (TBST) and stripped by two rounds of 20 and 10 min washes at 50°C in glycine buffer (pH 2.2) containing 0.1 % SDS (W/V) and 1% TWEEN20. Membranes were then washed at room temperature with PBS (3x10 min) and PBST (2x5min). Blocking, primary (1:4,000) and secondary (1:5,000) antibody staining was conducted as above. Primary rabbit anti-β-actin antibodies were obtained from Cell Signaling (4967S, lot 9) and secondary HRP-conjugated goat-anti-rabbit antibodies were from the same company (7074S, lot 27). […]

BEC-hACE2 cells = experiment: MTS assay, growth inhibition and toxicity in non-infected BEC-hACE2 cells; type: cell-based, human; settings: for MTS, TGI (beginning of the plateau): BEC-hACE2, 24 h
Procedure: (§1) Detailed methods are provided in Supplementary Information.
(§2) Vero E6 and BEC-hACE2 cells were grown to 70-80% density in their maintenance media and exposed to various concentrations of ipecac alkaloids (0.0125 – 200 µM) under standard culture conditions for 48-72 h and 24 h, respectively. Controls with varying amounts of DMSO and no DMSO were included also. Vero E6 cells were incubated with drugs in 2% FBS-EMEM, while BEC-HACE2 cells were grown and treated in complete PCS-300-03 medium with supplements. Similar treatments were also conducted using fully confluent non-growing BEC-hACE2 cells. At the end of the exposure period, MTS reagent (Promega G3580) was added at 1/5th of the medium volume and color was allowed to develop by incubation of the plates for an hour in a cell culture incubator. To stop reactions, SDS was added to a final concentration of 2% and optical density of samples was measured at 450 or 490 nm, depending on the model of spectrophotometer (PharmaciaBiotech, NJ, USA; UV spectrophotometer, model Ultrospec2000) or plate reader (Molecular Devices, CA, USA; model Filter Max F5 Multi-mode microplate reader) available at the time of experiment.

Vero E6 cells = experiment: MTS assay, growth inhibition and toxicity in non-infected Vero E6 cells; type: cell-based, African green monkey; settings: for Concentrations at which drug is cytotoxic: Vero E6, MTS
Procedure: as §1, §2

[3] = Vero C1008, read-out: IC50, host protein synthesis
[4] = Vero C1008, Vero E6 cells, 1 h exposure, puromycin labeling, read-out: 50 % inhibitory activities, protein synthesis

Compound	IC50 [1]	Kd [1]	IC50 [2, 3]	IC50 [2, 4]	Protein synthesis,% ([2]; Vero E6, 0.1 μM)	Protein synthesis, puromycilation signal ([2]; Vero E6, > 10 μM)	Concentration above which inhibition of puromycilation is not sustained ([2]; Vero E6 cells)	MTS, TGI (beginning of the plateau) (BEC-hACE2 cells)	MTS, nature of the effect (BEC-hACE2 cells; BEC-hACE2, at 100 μM)	Concentrations at which drug is cytotoxic (Vero E6 cells)	further results
CCC1=C(C[C@H]2NCCc3cc(OC)c(OC)cc32)C[C@H]2c3cc(OC)c(OC)cc3CCN2C1 [DHE4, 4H-Benzo[a]quinolizine, 3-ethyl-1,6,7,11b-tetrahydro-9,10-dimethoxy-2-[[(1R)-1,2,3,4-tetrahydro-6,7-dimethoxy-1-isoquinolinyl]methyl]-, (11bS)-]	40 to 60 µM	54 µM	150 to 170 nM	~210 nM	20%	signal increase	> 10 µM	0.125 µM	cytostatic	higher than 10 μM	Protein synthesis,% ([2]; Vero E6, 0.01 μM): 15%; MTS, decrease (BEC-hACE2 cells; BEC-hACE2, at 100 μM): 40%; MTS, CC50 (50 % effect) (BEC-hACE2 cells; sub-confluent BEC-hACE2, 24 h): Effect not reached
CC[C@H]1CN2CCc3cc(OC)c(OC)cc3[C@@H]2C[C@@H]1C[C@H]1NCCc2cc(OC)c(OC)cc21 [Emetine, 2H-Benzoaquinolizine, 3-ethyl-1,3,4,6,7,11b-hexahydro-9,10-dimethoxy-2-(1R)-1,2,3,4-tetrahydro-6,7-dimethoxy-1-isoquinolinylmethyl-, dihydrochloride, (2S,3R,11bS)-, reference compound]	~57 µM and 40 to 60 µM	57 µM	150 to 170 nM	~110 nM	50%	signal increase	> 10 µM	0.125 µM	cytostatic	higher than 10 μM	Impact on ICaL ([1]; 0.5 μM): 1%; inhibition at 5 µM ([1]; 5 μM): ~10%; Estimated reduction in ICaL ([1]; GP ventricular myocytes, assuming 25 µM): over thirty-three percent; Protein synthesis,% ([2]; Vero E6, 0.01 μM, listed as EMT): 20%; Protein synthesis,% ([2]; Vero E6, 0.03 μM): 50%; Protein synthesis,% ([2]; Vero E6, 1 μM): terminating all translation activity; Protein synthesis,% ([2]; Vero E6, 1 μM, listed as EMT): 100%
CC[C@H]1CN2CCc3cc(OC)c(OC)cc3[C@@H]2C[C@@H]1C[C@@H]1NCCc2cc(OC)c(OC)cc21.Cl.Cl [Isoemetine, 2H-Benzoaquinolizine, 3-ethyl-1,3,4,6,7,11b-hexahydro-9,10-dimethoxy-2-(1S)-1,2,3,4-tetrahydro-6,7-dimethoxy-1-isoquinolinylmethyl-, dihydrochloride, (2S,3R,11bS)-]	–	42 µM	–	–	0%	–	> 1 µM	–	cytotoxic	–	Protein synthesis, puromycilation signal ([2]; Vero E6, >1 μM): signal increase; Concentrations at which cells are affected (MTS) (BEC-hACE2 cells; sub-confluent BEC-hACE2, 24 h): above 50 μM; CC50 (BEC-hACE2 cells; sub-confluent BEC-hACE2, 24 h, read-out: MTS, CC50 (50 % effect)): 100 µM; CC50 (Vero E6 cells; MTS, 72 h, read-out: Fifty percent effect (CC50) in non-infected Vero E6): 114 ± 13.1 µM
